Tested on: C. elegans
Assay: C. elegans chemical screens of RIKEN NPD libraries at 50 μM (hit identification in KCN survival and development/viability assays)
Assay type: cell-based, Caenorhabditis elegans
Conditions: screened at 50 μM in triplicate; […]; KCN = KCN survival assay, Dev. & Viability = development/viability assay

Row | Compound | Hit Type
1 | COc1cc2c(cc1OC)C(c1ccc(-c3ccc(Cl)c(Cl)c3)o1)=NCC2 [NPD3577] | KCN
2 | COc1cc2c(cc1OC)C(/C=C/c1ccc(N(C)C)cc1)=NCC2 [NPD6303] | KCN

— PMC11079024, “Identification of a family of species-selective complex I inhibitors as potential anthelmintics” (Nature Communications, 2024)
